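Compound exposure: 48 hours, 5 concentrations, 96-well plates. GI50 is the concentration that inhibits growth by half.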 Calls of active or inactive are those of the source. No stated cut-off is given here; in the data, active = GI50 up to about 1.1 µM and inactive = higher. Where only a bound is given, the exact number is not on record here.

Among the test systems are UACC-62; DLD-1; OVCAR-5; LXFL 529; OVCAR-4; SF-295; M19-MEL; HOP-18; SK-OV-3; KM12; 786-0; SF-268; A549; HCT-15; LOX IMVI; HT-29.
Holding throughout (assay): NCI anticancer screen, dose series, 48 h

Consider `N#CC1CCCCOCCOCCOCCOCCOCCCCCC1=O` (stereo not given), for which the GI50 in the experiment with UACC-62, in the experiment with DLD-1, in the experiment with OVCAR-5, in the experiment on LXFL 529, in the experiment with OVCAR-4 and in the experiment with SF-295 was > 100 µM (inactive) throughout. The GI50 with M19-MEL, in the experiment with HOP-18, in the experiment on SK-OV-3, in the experiment on KM12, in the experiment with 786-0 and in the experiment with SF-268 was > 100 µM (inactive) in each case. Moreover, the GI50 in the experiment with A549 was > 100 µM (inactive); in the experiment with HCT-15 it was over 100 µM; with LOX IMVI, > 100 µM (inactive); in the experiment on HT-29, > 100 µM (inactive).

Regarding `CCSc1nnc(CSc2nc(-c3ccccc3)c(-c3ccccc3)[nH]2)n1-c1ccccc1`, the GI50 with UACC-62 was 15.3 µM (inactive); with DLD-1, 20.2 µM (inactive); in the experiment with OVCAR-5, 14.5 µM (inactive); in the experiment with LXFL 529 it was 27.4 µM (inactive); in the experiment with SF-295, 23.1 µM (inactive); with M19-MEL, 18.6 µM (inactive). In addition, the GI50 is 13.8 µM (inactive) in the experiment with HOP-18; 26.4 µM (inactive) in the experiment with SK-OV-3; 16.9 µM (inactive) in the experiment with KM12; 19.8 µM (inactive) with 786-0; 23.3 µM (inactive) in the experiment on SF-268; 29.9 µM (inactive) in the experiment on A549. In addition, the GI50 in the experiment on HCT-15 is 18.5 µM; with LOX IMVI, 22.9 µM (inactive); with HT-29, 19.4 µM (inactive).

As for `C/C(CCn1[nH]c(=O)ccc1=O)=N\O`, the GI50 in the experiment with UACC-62, with DLD-1, in the experiment with OVCAR-5, in the experiment with LXFL 529, in the experiment on OVCAR-4 and in the experiment with SF-295 was > 100 µM (inactive) in each case. Also, the GI50 in the experiment with M19-MEL, in the experiment on HOP-18, in the experiment with KM12, in the experiment with 786-0, in the experiment with SF-268 and with A549 was > 100 µM (inactive) throughout. Further, the GI50 was over 100 µM with HCT-15, > 100 µM (inactive) with LOX IMVI and > 100 µM (inactive) with HT-29.

`C[C@]12CC/C(=N\O)C=C1CC[C@@H]1C2CC[C@@]2(C)C1CC[C@@H]2OC1CCCCO1` (stereo not given in full): the GI50 in the experiment on UACC-62 was > 10 µM (inactive); in the experiment with DLD-1, 30.7 µM (inactive); in the experiment with OVCAR-5, 15.5 µM (inactive); in the experiment with LXFL 529, 17.2 µM (inactive); in the experiment on OVCAR-4, 15.6 µM (inactive); in the experiment with SF-295, 18.5 µM (inactive). In addition, the GI50 in the experiment on M19-MEL is 19.1 µM (inactive); in the experiment with HOP-18 it was 16.4 µM (inactive); in the experiment on SK-OV-3, 21.9 µM (inactive); with KM12 it was 16.7 µM (inactive); with 786-0, 17.7 µM (inactive); in the experiment on SF-268 it was 23.3 µM (inactive). The GI50 was 22.6 µM (inactive) in the experiment with A549, 20.1 µM in the experiment on HCT-15, 17.7 µM (inactive) in the experiment with LOX IMVI and 14.3 µM (inactive) with HT-29.

In the case of `C[C@@H](NC1CCC[C@@H]1O)c1ccccc1` (stereo not given in full), the GI50 in the experiment on UACC-62, in the experiment with DLD-1, in the experiment on OVCAR-5, in the experiment on LXFL 529, with OVCAR-4 and in the experiment with SF-295 was > 100 µM (inactive) throughout. The GI50 in the experiment on M19-MEL, in the experiment with HOP-18, with SK-OV-3, with KM12, in the experiment with 786-0 and with A549 was > 100 µM (inactive) throughout. The GI50 in the experiment on HCT-15 was over 100 µM; in the experiment with LOX IMVI it was > 100 µM (inactive); in the experiment on HT-29, > 100 µM (inactive).

With `CCOC(=O)CC1=Nc2ccccc2SC1`, the GI50 in the experiment on UACC-62, with DLD-1, with OVCAR-5, in the experiment with LXFL 529, with OVCAR-4 and in the experiment with SF-295 was > 100 µM (inactive) each time. The GI50 with M19-MEL is > 100 µM (inactive); in the experiment on HOP-18, > 100 µM (inactive); with KM12 it was > 100 µM (inactive); with 786-0, > 100 µM (inactive); with SF-268 it was 0.031 µM (active); in the experiment with A549, > 100 µM (inactive). The GI50 with HCT-15 is over 100 µM; with LOX IMVI, > 100 µM (inactive); with HT-29, > 100 µM (inactive).

Turning to `C/C(CN1C(=O)c2ccccc2C1=O)=N\NS(=O)(=O)c1ccc(Cl)cc1`, the GI50 in the experiment with UACC-62, with DLD-1, with OVCAR-5, in the experiment on LXFL 529, in the experiment on OVCAR-4 and with SF-295 was > 100 µM (inactive) in each case. Further, the GI50 in the experiment with M19-MEL was > 100 µM (inactive); in the experiment with HOP-18 it was > 100 µM (inactive); in the experiment with KM12, > 100 µM (inactive); in the experiment with 786-0 it was > 100 µM (inactive); in the experiment on A549, > 100 µM (inactive); in the experiment on HCT-15, over 100 µM. Moreover, the GI50 with HT-29 is > 100 µM (inactive).

As to `O=C(Cc1csc(-c2nc(CC(=O)NNc3ccccc3)cs2)n1)NNc1ccccc1`, the GI50 was > 100 µM (inactive) with UACC-62; 49 µM (inactive) with DLD-1; > 100 µM (inactive) with OVCAR-5; 91.2 µM (inactive) in the experiment with LXFL 529; > 100 µM (inactive) with OVCAR-4; > 100 µM (inactive) in the experiment with SF-295. Also, the GI50 in the experiment on M19-MEL is > 100 µM (inactive); in the experiment with HOP-18 it was > 100 µM (inactive); in the experiment with SK-OV-3, > 100 µM (inactive); with KM12, > 100 µM (inactive); in the experiment on 786-0, 35.6 µM (inactive); in the experiment with SF-268, > 100 µM (inactive). For the same compound, the GI50 in the experiment on A549 was > 100 µM (inactive); with HCT-15, 38.4 µM; in the experiment with LOX IMVI, 19.6 µM (inactive); in the experiment on HT-29, 71.1 µM (inactive).

Regarding `CC(=O)Oc1ccc(O)c(O)c1C/C=C(\C)CC/C=C(\C)CC/C=C(\C)CCC=C(C)C` [TETRAPRENYLPHENOLSUILLIN], the GI50 with DLD-1 was 0.34 µM (active); with OVCAR-5 it was 0.596 µM (active); with LXFL 529, 0.284 µM (active); with OVCAR-4, 0.426 µM (active); in the experiment on SF-295, 0.746 µM (active); with M19-MEL, 0.393 µM (active). The GI50 is 0.187 µM (active) with HOP-18; 0.476 µM (active) with KM12; 1.1 µM (active) in the experiment with 786-0; 0.446 µM (active) in the experiment with SF-268; 0.34 µM (active) in the experiment on A549; 0.247 µM (active) in the experiment on LOX IMVI. Also, in the experiment with HT-29, the GI50 is 0.338 µM (active).

Regarding `COc1cccc2cc(C)c(C(=O)c3ccccc3)nc12`, the GI50 with UACC-62, in the experiment with DLD-1, in the experiment with OVCAR-5, with LXFL 529, with OVCAR-4 and in the experiment on SF-295 was > 100 µM (inactive) throughout. In addition, the GI50 in the experiment with M19-MEL, with HOP-18, in the experiment on KM12, in the experiment with 786-0, with SF-268 and in the experiment with A549 was > 100 µM (inactive) each time. Also, the GI50 in the experiment on HCT-15 was over 100 µM; in the experiment with LOX IMVI, > 100 µM (inactive).

For the compound `COC(=O)c1cc(=O)nc2cc3cccccc3n12`, the GI50 with UACC-62, in the experiment with DLD-1, with OVCAR-5, with LXFL 529, with SF-295 and in the experiment with M19-MEL was > 100 µM (inactive) throughout. For the same compound, the GI50 in the experiment with HOP-18 was > 100 µM (inactive); with SK-OV-3 it was > 100 µM (inactive); in the experiment on KM12, > 100 µM (inactive); with 786-0 it was > 100 µM (inactive); in the experiment on A549, > 100 µM (inactive); with HCT-15, over 100 µM. The GI50 in the experiment on LOX IMVI and in the experiment with HT-29 was > 100 µM (inactive) each time.

In the case of `CSc1c([S+](C)[O-])[nH]c2cc(Br)cc(Br)c12` (stereo not given), the GI50 was 17.9 µM (inactive) in the experiment with UACC-62; 16.5 µM (inactive) with DLD-1; 21.1 µM (inactive) in the experiment on LXFL 529; 17.1 µM (inactive) in the experiment with SF-295; 29.2 µM (inactive) with M19-MEL; 39.5 µM (inactive) in the experiment with HOP-18. Further, the GI50 with SK-OV-3 was 27.9 µM (inactive); in the experiment on KM12, 24.6 µM (inactive); in the experiment with 786-0, 16 µM (inactive); with A549, 24 µM (inactive); with HCT-15, 22.8 µM; in the experiment with LOX IMVI it was 16.2 µM (inactive). Also, the GI50 in the experiment with HT-29 is 26.9 µM (inactive).

In the case of `O=C(NO)C12C3C4C1C1C2C3C41C(=O)NO` (stereo not given), the GI50 in the experiment with UACC-62 was > 100 µM (inactive); in the experiment on DLD-1, > 100 µM (inactive); in the experiment on OVCAR-5, > 100 µM (inactive); with LXFL 529, 37.2 µM (inactive); in the experiment with SF-295 it was > 100 µM (inactive); in the experiment on M19-MEL, > 100 µM (inactive). Further, the GI50 in the experiment on HOP-18, in the experiment on SK-OV-3, with KM12, with 786-0, in the experiment on SF-268 and with A549 was > 100 µM (inactive) in each case. Also, the GI50 is over 100 µM in the experiment with HCT-15, > 100 µM (inactive) in the experiment with LOX IMVI and > 100 µM (inactive) in the experiment on HT-29.

For `CN1CN(C2OC(CO)C(O)C2O)c2nc(N)[nH]c(=O)c21` (stereo not given), the GI50 in the experiment with UACC-62, with DLD-1, in the experiment on OVCAR-5, in the experiment with LXFL 529, in the experiment on OVCAR-4 and with SF-295 was > 100 µM (inactive) each time. Moreover, the GI50 in the experiment with M19-MEL, in the experiment on HOP-18, in the experiment with SK-OV-3, with KM12, in the experiment on 786-0 and in the experiment on SF-268 was > 100 µM (inactive) in each case. The figures for the GI50 with A549, in the experiment with HCT-15 and in the experiment with HT-29 were > 100 µM (inactive), over 100 µM and > 100 µM (inactive), respectively.

The values are drawn from ChEMBL document CHEMBL1201862, “PubChem BioAssay data set” (2004).
